Source: patent US10568949B2, “Method of eliciting an anti-tumor immune response with controlled delivery of TLR agonists in porous polymerlc devices” (President and Fellows of Harvard College, priority 2008, dated 2020)
Where “and” joins values, the source holds several entries; their conditions need not be identical. Equal entries are not always repeated.

Legend:
[1] = system: T cells; assay: T cell infiltration at PLG vaccine site (flow cytometry); assay type: in vivo, C57BL/6J mice; details: with tumor lysate and GM-CSF, day 12
Method: Blank PLG matrices and matrices containing 3000 ng of GM-CSF alone or in combination with either 1, 10, 50, or 100 μg of CpG-ODN (studies were also performed with tumor lysates copresented with either 3000 ng of GM-CSF or 100 μg of CpG-ODN alone or in combination) were implanted into subcutaneous pockets on the back of 7- to 9-week-old male C57BL/6J mice. For histological examination, scaffolds were excised and fixed in Z-fix solution (Anatech), embedded in paraffin, and stained with hematoxylin and eosin (H&E). To analyze DC recruitment, scaffolds were excised at various time points and digested the ingrown tissue into single-cell suspensions with a collagenase solution (250 U/ml; Worthington) that was agitated at 37° C. for 45 min. The cell suspensions were then poured through a 40-μm cell strainer to isolate cells from scaffold particles, and the cells were pelleted and washed with cold PBS and counted with a Z2 coulter counter (Beckman Coulter). […] To assess T cell infiltration, PE-Cy7-conjugated CD3 stains were performed in conjunction with APC-conjugated CD8a (CD8 T cells), FITC-conjugated CD4 (CD4 T cells), and PE-conjugated FoxP3 (Treg) and analyzed with flow cytometry. Cells were gated according to positive FITC, APC, and PE with isotype controls, and the percentage of cells staining positive for each surface antigen was recorded.

[2] = system: B16-F10 melanoma tumors; assay: T-cell infiltration into tumor tissue (immunohistochemistry); assay type: in vivo, C57BL/6J mice
Method: PLG scaffolds with melanoma tumor lysates and various dosages of GM-CSF and/or 10 μg PEI-CpG-ODN condensates were implanted subcutaneously into the lower left flank of C57BL/6J mice. Animals were challenged 14 days later with a subcutaneous injection of 10^5 B16-F10 melanoma cells (ATCC, Manassas, N.J.) in the back of the neck. Animals were monitored for the onset of tumor growth (approximately 1 mm^3) and sacrificed for humane reasons when tumors grew to 20-25 mm (longest diameter). For histological examination, tumors were biopsied at days 20-25 after injection and fixed in Z-fix (Anatech, Battle Creek, Mich.) and stained for hematoxylin and eosin. To examine tumor tissue for T-cell infiltration, immunoperoxidase staining was performed using the avidin-biotin-peroxidase Vectastain Elite ABC kit (Vector Laboratories). The primary antibodies used were GK 1.5 (CD4), and 53-6.72 (CD8) and staining was developed using DAB+ substrate chromogen (DAKO, Carpinteria, Calif.). Sections from tumor samples (n=3 or 4) were visualized at 40× and 100× with a Nikon light microscope (Indianapolis, Ind.) and positively stained T-cells were counted manually.

[3] = system: B16-F10 melanoma cells; assay: Prophylactic vaccination, B16-F10 melanoma tumor challenge; details: for mouse survival: antigen matrices, CpG and GM-CSF together versus GM-CSF alone
Method: PLG scaffolds with melanoma tumor lysates and various dosages of GM-CSF and/or 10 μg PEI-CpG-ODN condensates were implanted subcutaneously into the lower left flank of C57BL/6J mice. Animals were challenged 14 days later with a subcutaneous injection of 10^5 B16-F10 melanoma cells (ATCC, Manassas, N.J.) in the back of the neck. Animals were monitored for the onset of tumor growth (approximately 1 mm^3) and sacrificed for humane reasons when tumors grew to 20-25 mm (longest diameter).
PLG scaffolds with melanoma tumor lysates and various dosages of GM-CSF and/or various quantities of PEI-CpG-ODN condensates were implanted subcutaneously into the lower left flank of C57BL/6J mice. For prophylactic vaccinations, animals were challenged 14 days later with a subcutaneous injection of 10^5 B16-F10 melanoma cells [American Type Culture Collection (ATCC)] in the back of the neck. Animals were monitored for the onset of tumor growth (˜1 mm^3) and killed for humane reasons when tumors grew to 20 to 25 mm (longest diameter).

[4] = system: dendritic cells; assay: Example 7: DC recruitment and activation in matrices with GM-CSF and TLR agonists (FACS, day 7); assay type: in vivo, C57BL/6J mice
Text: The cell suspensions were then poured through a 40 μm cell strainer to isolate cells from scaffold particles and the cells were pelleted and washed with cold PBS and counted using a Z2 coulter counter (Beckman Coulter). To assess, DC infiltration and activation, subsets of the total cell population isolated from PLG matrices were then stained with primary antibodies (BD Pharmingen, San Diego, Calif.) conjugated to fluorescent markers to allow for analysis by flow cytometry. APC-conjugated CD11c (dendritic cell marker), FITC-conjugated MHCII and PE-conjugated CD86 (B7, costimulatory molecule) stains were conducted for DC recruitment and activation analysis. To further delineate the presence of specific DC subsets, cells were also stained with APC-conjugated CD11c and PE-conjugated PDCA-1 (plasmacytoid DC marker) or APC-conjugated CD11c and PE-conjugated CD8 (CD8 DCs). To assess T-cell infiltration PE-Cy7 conjugated CD3 stains were performed in conjunction with APC-conjugated CD8a (CD8 T cells), and PE-conjugated FoxP3 (Treg) and analyzed with flow cytometry. Cells were gated according to single positive FITC, APC and PE stainings and using isotype controls. The percentage of cells staining positive for each surface antigen was recorded. To examine the ability of PLG matrices to recruit and activate dendritic cells in vivo, matrices delivering GM-CSF in combination with danger signals were implanted subcutaneously into the backs of C57BL/6J mice. The magnitude of DC infiltration and activation into the matrices was determined by FACS analysis of cell populations isolated from the polymeric material after 7 days.

[5] = In vitro release / retention of GM-CSF, cytokines and TLR agonists from PLG scaffolds; assay type: physicochemical
Method: To determine the incorporation efficiency of CpG-ODN incorporation, PLG scaffolds were prepared with 50 ug of CpG-ODN and digested in 1 ml of chloroform (Sigma Aldrich, and washed with 2 mls of aqueous buffer. The aqueous phase was isolated and the amount of CpG-ODN incorporated was determined by absorbance readings (260/280 and 260/230 ratios calculated at 0.2 mm pathlength) using a Nanodrop instrument, ND1000 (Nanodrop technologies, Wilmington, Del.). Similarly, to determine CpG-ODN release kinetics CpG-ODN loaded scaffolds were placed in 1 ml of Phosphate Buffer Solution (PBS) in an incubator (37° C.). At various timepoints, the PBS release media was collected and replaced with fresh media. The total amount of CpG-ODN incorporated into PLG scaffolds and released into PBS over time was analyzed and recorded.

[6] = system: IL-12p70, IFN-α, IFN-γ, and TGF-β; assay: In vivo cytokine concentrations at matrix implant site (ELISA); set-up: species or system C57BL/6J mice
Method: After centrifugation, the concentrations of IL-12, IFN-α, IFN-γ, and TGF-β in the supernatant were then analyzed with enzyme-linked immunosorbent assay (R&D Systems) according to the manufacturer's instructions.

[7] = system: B16-F10 melanoma cells; assay: Example 7: prophylactic vaccination, B16-F10 melanoma; assay type: in vivo, C57BL/6J mice; set-up: concentration or dose not given beside the values; details: for survival rate: B16-F10 tumor lysates and GM-CSF, with or without TLR agonist, challenge at day 14
[8] = optimal GM-CSF exposure (400 ng) with tumor antigen

CpG-ODN 1826
ratio of CD8 CTLs to FoxP3 Treg cells at vaccine site (factor) [1]: ~25 | increase in CD8(+) T-cell infiltration into tumors over controls ([2]; infection mimics, 10 μg CpG-ODN dose): ~3 fold | mouse survival [3]: 90% | survival rate ([3]; lysate, GM-CSF and 10 μg CpG-ODN): 50% and 45% | survival rate ([3]; lysate, GM-CSF and 10 μg CpG-ODN, listed as CpG): 50% | survival rate ([3]; lysate, GM-CSF and 50 μg CpG-ODN): 60% | survival rate ([3]; lysate, GM-CSF and 100 μg CpG-ODN): 90% | vaccinated mice surviving B16-F10 challenge ([3]; tumor lysates with CpG-ODN (1, 10, 50 or 100), no GM-CSF): 10 to 30% and 20% and 10-30% | CD8(+) DCs at implant site, higher than controls ([4]; with GM-CSF): 9 fold | CD11c(+) cells positive for MHCII(+) and CD86(+), of total cells recruited ([4]; with GM-CSF): approximately 30% | enhancement of total number of recruited DCs compared to GM-CSF delivery alone ([4]; with GM-CSF): 2.5 fold | increase in total number of activated DCs relative to control matrices ([4]; with GM-CSF): ~23 fold | retained in the PLG matrices ([5]; over 25 days): > 80% | local production of IFN-α ([6]; high doses of CpG-ODN): ~1010 pg/mL | local production of IL-12 ([6]; high doses of CpG-ODN): 150 pg/mL | survival rate [7]: 90% | long-term survival ([7]; wildtype mice, CpG-ODN loaded PLG vaccines): 100%

B1: granulocyte macrophage colony stimulating factor (protein, UniProt P01587 18-141, looked up)
Granulocyte-macrophage …: APTRSPITVTRPWKHVEAIKEALNLLDDMPVTLNEEVEVVSNEFSFKKLTCVQTRLKIFEQGLRGNFTKLKGALNMTASYYQTYCPPTPETDCETQVTTYADFIDSLKTFLTDIPFECKKPGQK
notes: cytokine encapsulated in and released from PLG matrices to recruit DCs
ratio of CD8 CTLs to FoxP3 Treg cells at vaccine site (factor) [1]: almost even ratio | increase in CD8(+) cytotoxic T-cell numbers in tumors over blank controls ([2]; appropriate GM-CSF presentation with antigen): 2 fold | animals cured / with protective anti-tumor immunity ([3]; GM-CSF with antigen, optimal GM-CSF dose): 23% | mouse survival [3]: 20% | animal survival ([3]; lysate, GM-CSF, CpG dose 0 μg): 23% | delay of tumor formation ([3]; optimal GM-CSF dose with antigen, in 50% of the animals): approximately 40 days | increase in average time before tumor formation compared to antigen alone [3, 8]: 3 fold | increase in average time before tumor formation over non-optimal GM-CSF exposure [3, 8]: ~2 fold | CD11c(+) cells in matrices ([4]; GM-CSF alone): 241000 cells | CD86 expression ([4]; GM-CSF alone): 4.58 % of CD11c(+) cells | MHCII expression ([4]; GM-CSF alone): 2.57 % of total CD11c(+) cells | incorporated cytokine released from scaffolds ([5]; by day 4, in vitro): approximately 43% | GM-CSF protein released from PLG matrices ([5]; by day 10, in vitro): approximately 60% | daily release of protein ([5]; over the next 23 days after day 4): approximately 0.9% | bioactive GM-CSF load released from PLG matrices ([5]; within the first 5 days): approximately 60% | factor of increase in TGFβ concentrations at vaccine site ([6]; GM-CSF and tumor lysate in matrix): 10 | survival rate [7]: 10%
